Measurements published in patent publication US20180133203A1, “METHODS OF TREATING LIVER DISEASE” (Gilead Sciences, Inc., priority 2016, published 2018).

Key:
CDHFD/NaNO2 rats = experiment: Liver hydroxyproline content in CDHFD/NaNO2 rat model of NASH; type: in vivo, male Wistar rats; conditions: vs vehicle-treated CDHFD/NaNO2 rats; Formula (I) 0.2% in diet, Formula (III) 30 mg/kg/day, week 4 to 14
Protocol: The following study was conducted to evaluate the efficacy of the combination of an ASK1 inhibitor and an FXR agonist in a rodent model of non-alcoholic steatohepatitis (NASH), relative to the efficacy of the individual agents alone in the model. NASH was induced in male Wistar rats by administration of a choline-deficient high fat diet (CDHFD) combined with the chronic administration of sodium nitrite (CDHFD/NaNO2). The model capitalizes on the “two hit theory” of NASH by inducing both metabolic dysfunction (CDHFD) and oxidative stress (NaNO2) in the liver to result in hepatic fibrosis that is similar in character and severity to that seen in patients with advanced NASH. Rats were fed CDHFD for a total of 14 weeks and were administered NaNO2 from week 4 to 14. […] The following endpoints were assessed at the completion of the 14 week study: i) liver fibrosis measured by liver hydroxyproline (OHP) content and by quantitative morphometric analysis of collagen content by Picosirius red (PSR) staining; ii) myofibroblast activation in liver sections as measured by quantitative IHC of the myofibroblast marker desmin; and, iii) Col1a1 and Timp1 in liver tissue measured by RT-PCR. […] All endpoints were assessed at the completion of the 14 week study protocol. […] The hydroxyproline content was determined photometrically by measuring the absorbance at 560 nm. […]

FFD mice = experiment: Plasma bile acids by LC-MS/MS in FFD mouse model of NASH; type: in vivo, male C57BL/6 mice; conditions: Formula (I) 0.15% admixture in diet, Formula (III) 10 mg/kg PO QD, months 7-10
Protocol: The following study was conducted to evaluate the efficacy of the combination of an ASK1 inhibitor and an FXR agonist in a mouse model of non-alcoholic steatohepatitis (NASH), relative to the efficacy of the individual agents alone in the model. NASH was induced in male C57BL/6 mice by chronic administration of a “fast food” diet (FFD) high in saturated fats, cholesterol and sugars for a total of 10 months, whereas lean control animals were maintained on a normal chow diet. A NASH phenotype was established in FFD mice compared to control mice by 7 months, and was characterized by obesity, hypercholesterolemia, and AST/ALT elevation; and by histological features of NASH such as hepatocellular macrovesicular steatosis and ballooning degeneration. See Charlton M, et al. Fast food diet mouse: novel small animal model of NASH with ballooning, progressive fibrosis, and high physiological fidelity to the human condition. American journal of physiology. Gastrointestinal and liver physiology 2011; 301 (5):G825-34. […] Endpoint analyses included morphometric quantification of liver steatosis (% of steatotic area), liver cholesterol content, serum ALT/AST levels, serum bile acid levels, and nanostring evaluation of gene expression. […] Plasma samples were sent to Metabolon, Inc. (Durham, N.C.) for quantification of primary and secondary bile acids and their conjugates by LC-MS/MS.

Row | SMILES | reduction of liver hydroxyproline content (CDHFD/NaNO2 rats) | reduction in plasma bile acid levels (FFD mice)
1 | O=C(O)c1ccnc(N2CC(O)(c3ccc(OCc4c(-c5c(Cl)cccc5Cl)noc4C4CC4)cc3Cl)C2)c1 [Formula (III)] | did not significantly reduce | 46%
2 | O=C(Nc1cccc(-c2nncn2C2CC2)c1)c1cc(-n2cnc(C3CC3)c2)ccn1 [Formula (I)] | did not significantly reduce | 52%
